Reference: US12678440B2, “Compositions and methods for treating misfolded protein ocular disorders” (CASE WESTERN RESERVE UNIVERSITY, priority 2020, dated 2026)

Key:
[1] = tested on: chymotrypsin-like proteasome activity; experiment: Proteasome activity assay (Proteasome-Glo); type: cell-based; conditions: NIH3T3 (RHO^P23H/GFP) and NIH3T3 (RHO^WT/GFP) cells; 0.0195 to 10 μM, 24 h
Protocol: NIH3T3 (RHO^P23H/GFP), NIH3T3 (RHO^WT/GFP) and NIH3T3 cells were seeded in a white-wall clear-bottom 384-well plate at 2500 cells/well in 20 μL of complete mediu. After 3 h of incubation, five μL/well of complete medium containing MTX was added to cells to treat cells with MTX at final concentrations from 0.0195 to 10 μM for 24 h. The cells treated with a complete medium containing 0.1% DMSO were used as the 100% control, and those treated with 5 μM MG-132 for 8 h were used as the 0% control. For endpoint proteasome activity measurement, each well was added with 25 μL of Proteasome-Glo™ Reagent containing the Suc-LLVY-Glo™ substrate (Promega, G8660, Madison, WI USA). The 384-well plate was shaken for 2 min to mix the solutions followed by a 24-min incubation at room temperature. Luminescence of each well was detected by a SpectraMax 13× microplate reader (Molecular Devices). The chymotrypsin-like proteasome activity was normalized by the 100% and 0% controls, respectively.

[2] = tested on: P23H rhodopsin; experiment: Immunoblot of rhodopsin, MTX plus BafA1 or MG-132, NIH3T3 (RHO^P23H/GFP) cells; type: cell-based; conditions: 10 μM MTX + 100 nM BafA1, 24 h
Protocol: (§1) Cells were seeded in 6-well plates at a density of 5×10^5 cells/well and cultured at 37° C. with 5% CO2 for 17 h. The medium was replaced with a fresh medium containing a corresponding concentration of compounds. After treatment for 24 h, cells collected and lysed in 150 μL PBS containing 0.1% SDS and complete protease inhibitor cocktail with 12 s of sonication on ice. Retina samples were lysed in 300 μL per retina of PBS containing 0.1% SDS and complete protease inhibitor cocktail under 24 s of sonication on ice. Protein concentrations were determined by measurements of OD280 nm using a Nanodrop spectrometer. To immunoblot rhodopsin, one hundred μg of total protein for NIH3T3 (RHO^P23H/GFP) cells, or twenty μg of total protein for NIH3T3 (RHO^WT/GFP) cells was loaded per well onto an SDS-PAGE gel. To detect other proteins, fifty μg of total protein was loaded per well. After separation by electrophoresis in 10% and 16% SDS-PAGE gels, proteins were transferred to a nitrocellulose membrane using a wet membrane electrotransfer cassette followed by blocking with 5% bovine serum albumin in PBS containing 0.05% Tween 20 for 1 h. The membranes were incubated with primary antibodies at 4° C. overnight following with appropriate secondary antibodies for 1 h at room temperature. […]

[3] = tested on: WT rhodopsin; experiment: Immunoblot of rhodopsin, MTX plus BafA1 or MG-132, NIH3T3 (RHO^WT/GFP) cells; type: cell-based
Protocol: as §1

[4] = tested on: SQSTM1/p62 and LC3-II in retinae of Rho^P23H/+ knock-in mice; experiment: Autophagy flux in retinae after intravitreal injection (immunoblots of SQSTM1/p62 and LC3); type: in vivo, mouse; conditions: 25 pmol IVI at PND 15, 48 h, vs PBS
Protocol: as §1

With `CN(Cc1cnc2nc(N)nc(N)c2n1)c1ccc(C(=O)N[C@@H](CCC(=O)O)C(=O)O)cc1` [CL-009, N-[4-[[(2,4-diamino-6-pteridinyl)methyl]methylamino]benzoyl]-L-glutamic acid] the chymotrypsin-like proteasome activity [1] was “did not affect”, the “MTX induced P23H rhodopsin clearance under BafA1 co-treatment (immunoblot)” value [2] was “abolished” and the “WT rhodopsin level under BafA1 and MTX co-treatment (immunoblot)” value ([3]; 10 μM MTX + 100 nM BafA1, 24 h) was “accumulation of WT rhodopsin”. For the same compound, the “WT rhodopsin accumulation under MG-132 plus MTX (immunoblot)” value ([3]; 10 μM MTX + 5 μM MG-132, 24 h) was “did not”, the “LC3-II level in retinae” value [4] was “increase” and the “SQSTM1/p62 level in retinae” value [4] was “decrease”.
